Experiments:
Format in all cases: cell-based
[1] = molecular target: T1, human EDG1 (S1PR1) receptor (Homo sapiens, UniProt P21453); assay: Aequorin assay, agonist potency, CHO-A21-Edg1#17 cells; conditions: agonist mode, aequorin luminescence; read-out: S1P1 EC50
T1 construct: expressed in transfected cells; host or cells: CHO-A21-Edg1#17 (CHO clone co-expressing mitochondrial aequorin and chimaeric Gaqi5)
Experimental: (§1) Agonistic activity was measured as described below.
(§2) Cell clone CHO-A21-Edg1#17 carries the transgenes human EDG1 (S1PR1) receptor (Accession number NP_001391.2), mitochondrially targeted Aequorin (active part corresponds to accession number 1SL8_A) and chimaeric Gaqi5=Gaq modified with the 5 C-terminal amino-acids replaced with those of the Gai protein (DCGLF). CHO-A2-S1P3 Mix is a cell pool ectopically expressing human EDG3 (S1PR3) receptor (Accession number NP_005217.2) mitochondrially targeted Aequorin (active part has a sequence similar to accession number AY601106.1) and GNA16 (Accession number NP_002059.3). Cell clone CHO-A21-EDG8#12 carries the transgenes human EDG8 (S1PR5) receptor (Acession number NP_110387.1), mitochondrially expressed Aequorin (active part corresponds to accession number 1SL8_A) and chimaeric Gaqi5 (Gaq modified to present the 5 last amino-acids of the Gai protein “DCGLF”; see above). Cells are grown to mid-log phase in culture medium (HAM's F12, 10% FBS, 100 IU/mL penicillin, 100 μg/mL streptomycin, 250 μg/mL Zeocin, 400 μg/mL G418). 18 hours prior to frozen cells preparation, the medium is changed to remove the antibiotics.
(§3) 18 hours prior to the test, vials of frozen cells are quickly thawed in a 37° C. water bath, cells are recovered by centrifugation and resuspended in assay buffer (DMEM/HAM's F12 with HEPES, without phenol red+0.1% fatty acid-free BSA). Cells are gently agitated in suspension overnight at RT in presence of 5 μM of Coelenterazine h (Molecular Probes). On the day of the test, cells are diluted to their final working concentrations in assay buffer and agitated in suspension for 1 h at RT. Cells are then placed in the luminescence reader (Hamamatsu Functional Drug Screening System 6000, FDSS6000). During cells incubation, compounds are prepared in 100% DMSO, and subsequently diluted in assay buffer. Compounds are then dispensed in the assay plate (black, clear-bottom, 384-well plate). After binding of agonists to the human S1P receptor the intracellular calcium concentration increases and binding of calcium to the Aequorin/Coelenterazine complex leads to an oxidation reaction of coelenterazine, which results in the production of Aequorin, coelenteramide, CO2 and light (Dmax 469 nm). The luminescent response is dependent on the agonist concentration. For agonist testing, 30 μL of cell suspension are injected on 30 μL of test compound or reference agonist in the assay plate. The resulting emission of light is recorded for 90 seconds using the FDSS6000. Dose response curves with the reference compounds are performed before testing the compounds. S1P is the reference agonist and JTE-013 the reference antagonist for S1P2.
(§4) Luminescence data are integrated over the reading interval for agonist and antagonist modes. To standardize the emission of recorded light (determination of the “100% signal”) across plates and across different experiments, some of the wells contain 100 μM digitonin or a saturating concentration of ATP (20 μM). Plates also contain the reference agonist at a concentration equivalent to the EC80 obtained during the test validation and the EC100. Dose-response data from test compounds were analyzed with XLfit (IDBS) software using nonlinear regression applied to a sigmoidal dose-response model and the following equation: […]

S1P4 = molecular target: T2, S1P4 (Homo sapiens, UniProt O95977); assay: Aequorin assay, agonist potency, S1P4; conditions: agonist mode, aequorin luminescence
T2 sequence (O95977 1-384): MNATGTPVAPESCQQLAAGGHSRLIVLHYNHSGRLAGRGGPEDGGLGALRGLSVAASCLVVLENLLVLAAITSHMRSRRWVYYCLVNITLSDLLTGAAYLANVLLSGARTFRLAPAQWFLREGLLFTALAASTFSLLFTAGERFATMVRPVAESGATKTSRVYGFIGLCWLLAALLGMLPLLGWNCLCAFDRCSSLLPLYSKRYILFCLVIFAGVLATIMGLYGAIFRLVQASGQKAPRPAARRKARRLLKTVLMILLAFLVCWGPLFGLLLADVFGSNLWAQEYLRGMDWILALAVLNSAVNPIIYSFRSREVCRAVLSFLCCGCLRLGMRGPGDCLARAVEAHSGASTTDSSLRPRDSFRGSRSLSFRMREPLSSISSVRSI
Experimental: as §1, §3, §4

[2] = molecular target: T3, human EDG8 (S1PR5) receptor (Homo sapiens, UniProt Q9H228); assay: Aequorin assay, agonist potency, CHO-A21-EDG8#12 cells; conditions: agonist mode, aequorin luminescence; read-out: S1P5 EC50 range #
T3 construct: carries the transgenes human EDG8 (S1PR5) receptor (Acession number NP_110387.1); expressed in transfected cells; host or cells: CHO-A21-EDG8#12 (CHO clone co-expressing mitochondrial aequorin and chimaeric Gaqi5)
Experimental: as §1, §2, §3, §4

T1 sequence (P21453 whole entry): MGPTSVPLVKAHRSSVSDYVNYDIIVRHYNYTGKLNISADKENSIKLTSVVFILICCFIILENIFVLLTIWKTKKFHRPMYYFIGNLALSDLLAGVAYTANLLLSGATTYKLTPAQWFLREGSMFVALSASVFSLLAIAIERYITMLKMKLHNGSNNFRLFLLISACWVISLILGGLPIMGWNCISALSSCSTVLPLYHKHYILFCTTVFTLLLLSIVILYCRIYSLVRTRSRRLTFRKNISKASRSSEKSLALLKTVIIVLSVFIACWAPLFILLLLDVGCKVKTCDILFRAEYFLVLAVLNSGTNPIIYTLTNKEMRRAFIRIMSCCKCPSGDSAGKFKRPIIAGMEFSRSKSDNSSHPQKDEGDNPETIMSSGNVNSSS
T3 sequence (Q9H228 whole entry): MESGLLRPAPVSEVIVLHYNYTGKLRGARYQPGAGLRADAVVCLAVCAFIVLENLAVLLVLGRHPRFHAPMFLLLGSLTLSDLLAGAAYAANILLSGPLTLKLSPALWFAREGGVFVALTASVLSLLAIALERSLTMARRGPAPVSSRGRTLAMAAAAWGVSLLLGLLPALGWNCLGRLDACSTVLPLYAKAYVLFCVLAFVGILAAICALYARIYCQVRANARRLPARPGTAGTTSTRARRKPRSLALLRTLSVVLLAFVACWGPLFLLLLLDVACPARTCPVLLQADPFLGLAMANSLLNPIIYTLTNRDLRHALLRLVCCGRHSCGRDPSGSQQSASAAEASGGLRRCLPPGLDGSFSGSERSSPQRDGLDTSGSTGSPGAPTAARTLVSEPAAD

Structure (SMILES)	EC50 [1]	EC50 (S1P4)	EC50 [2]
O=C(O)C1(CN2CC3(Cc4ccc(OCCC5CCCCC5)cc4C3)C2)CC1 [Example 132, 1-((5′-(2-cyclohexylethoxy)-1′,3′-dihydrospiro[azetidine-3,2′-inden]-1-yl)methyl)cyclopropanecarboxylic acid]	> 1 µM	< 1 µM	1 to 10 µM
O=C(O)C1CC(N2CC3(Cc4ccc(OCc5c(Cl)cccc5Cl)cc4C3)C2)C1 (stereo not drawn) [Example 92, 3-(5′-((2,6-dichlorobenzyl)oxy)-1′,3′-dihydrospiro[azetidine-3,2′-inden]-1-yl)cyclobutanecarboxylic acid]	> 1 µM	< 1 µM	≤ 0.01 µM
CCOc1ccc(C#Cc2ccc3c(c2)CC2(C3)CN(C3CC(C(=O)O)C3)C2)cc1 (stereo not drawn) [Example 98, 3-(5′-((4-ethoxyphenyl)ethynyl)-1′,3′-dihydrospiro[azetidine-3,2′-inden]-1-yl)cyclobutanecarboxylic acid]	< 1 µM	> 1 µM	0.01 to 0.1 µM
O=C(O)C1(CN2CC3(Cc4ccc(OCCc5c[nH]c6ccccc56)cc4C3)C2)CC1 [Example 144, 1-((5′-(2-(1H-indol-3-yl)ethoxy)-1′,3′-dihydrospiro[azetidine-3,2′-inden]-1-yl)methyl)cyclopropanecarboxylic acid]	> 1 µM	> 1 µM	1 to 10 µM
O=C(O)CN1CC2(Cc3ccc(C#Cc4ccc(OC5CCCC5)nc4)cc3C2)C1 [Example 78, 2-(5′-((6-(cyclopentyloxy)pyridin-3-yl)ethynyl)-1′,3′-dihydrospiro[azetidine-3,2′-inden]-1-yl)acetic acid]	< 1 µM	< 1 µM	≤ 0.01 µM
O=C(O)CN1CC2(Cc3ccc(OCCc4ccccc4Cl)cc3C2)C1 [Example 61, 2-(5′-(2-chlorophenethoxy)-1′,3′-dihydrospiro[azetidine-3,2′-inden]-1-yl)acetic acid]	> 1 µM	< 1 µM	0.01 to 0.1 µM
O=C(O)C1(CN2CC3(Cc4ccc(OCc5c(F)cccc5F)cc4C3)C2)CC1 [Example 37, 1-((5′-((2,6-difluorobenzyl)oxy)-1′,3′-dihydrospiro[azetidine-3,2′-inden]-1-yl)methyl)cyclopropanecarboxylic acid compound with 2,2,2-trifluoroacetic acid (1:1)]	> 1 µM	< 1 µM	1 to 10 µM
O=C(O)CN1CC2(Cc3ccc(OCCc4ccccc4)cc3C2)C1 [Example 60, 2-(5′-phenethoxy-1′,3′-dihydrospiro[azetidine-3,2′-inden]-1-yl)acetic acid]	> 1 µM	> 1 µM	1 to 10 µM
O=C(O)C1(CN2CC3(Cc4ccc(C#Cc5ccc(OC6CCCC6)nc5)cc4C3)C2)CC1 [Example 116, 1-((5′-((6-(cyclopentyloxy)pyridin-3-yl)ethynyl)-1′,3′-dihydrospiro[azetidine-3,2′-inden]-1-yl)methyl)cyclopropanecarboxylic acid]	> 1 µM	> 1 µM	0.01 to 0.1 µM
O=C(O)C1CC(N2CC3(Cc4ccc(OC5CCc6ccccc65)cc4C3)C2)C1 (stereo not drawn) [Example 104, 3-(5′-((2,3-dihydro-1H-inden-1-yl)oxy)-1′,3′-dihydrospiro[azetidine-3,2′-inden]-1-yl)cyclobutanecarboxylic acid]	> 1 µM	< 1 µM	≤ 0.01 µM
O=C(O)C1(CN2CC3(Cc4ccc(OCCc5ccccc5C(F)(F)F)cc4C3)C2)CC1 [Example 56, 1-((5′-(2-(trifluoromethyl)phenethoxy)-1′,3′-dihydrospiro[azetidine-3,2′-inden]-1-yl)methyl)cyclopropanecarboxylic acid]	> 1 µM	< 1 µM	0.01 to 0.1 µM
Cc1ccccc1COc1ccc2c(c1)CC1(C2)CN(CC2(C(=O)O)CC2)C1 [Example 138, 1-((5′-((2-methylbenzyl)oxy)-1′,3′-dihydrospiro[azetidine-3,2′-inden]-1-yl)methyl)cyclopropanecarboxylic acid]	> 1 µM	< 1 µM	1 to 10 µM
N#Cc1cccc(COc2ccc3c(c2)CC2(C3)CN(CC3(C(=O)O)CC3)C2)c1 [Example 147, 1-((5′-((3-cyanobenzyl)oxy)-1′,3′-dihydrospiro[azetidine-3,2′-inden]-1-yl)methyl)cyclopropanecarboxylic acid]	> 1 µM	< 1 µM	0.1 to 1 µM
O=C(O)CN1CC2(Cc3ccc(OCCOc4ccccc4)cc3C2)C1 [Example 70, 2-(5′-(2-phenoxyethoxy)-1′,3′-dihydrospiro[azetidine-3,2′-inden]-1-yl)acetic acid]	> 1 µM	< 1 µM	0.1 to 1 µM
COc1ccc(COc2ccc3c(c2)CC2(C3)CN(CC3(C(=O)O)CC3)C2)c(C)n1 [Example 121, 1-((5′-((6-methoxy-2-methylpyridin-3-yl)methoxy)-1′,3′-dihydrospiro[azetidine-3,2′-inden]-1-yl)methyl)cyclopropanecarboxylic acid]	> 1 µM	> 1 µM	1 to 10 µM
CCOc1ccc(COc2ccc3c(c2)CC2(C3)CN(CC3(C(=O)O)CC3)C2)c(F)c1F [Example 123, 1-((5′-((4-ethoxy-2,3-difluorobenzyl)oxy)-1′,3′-dihydrospiro[azetidine-3,2′-inden]-1-yl)methyl)cyclopropanecarboxylic acid]	> 1 µM	< 1 µM	1 to 10 µM
CC1CCC(C#Cc2ccc3c(c2)OC2(C3)CN(CC(=O)O)C2)CC1 (stereo not drawn) [Example 155, 2-(6′-((4-methylcyclohexyl)ethynyl)-3′H-spiro[azetidine-3,2′-benzofuran]-1-yl)acetic acid]	> 1 µM	< 1 µM	0.1 to 1 µM
O=C(O)CN1CC2(Cc3ccc(OC4CCc5cc(Br)cc(F)c54)cc3C2)C1 (stereo not drawn) [Example 68, 2-(5′-((5-bromo-7-fluoro-2,3-dihydro-1H-inden-1-yl)oxy)-1′,3′-dihydrospiro[azetidine-3,2′-inden]-1-yl)acetic acid]	> 1 µM	< 1 µM	≤ 0.01 µM
O=C(O)CN1CC2(Cc3ccc(C#Cc4cccc(Cl)c4)cc3O2)C1 [Example 152, 2-(6′-((3-chlorophenyl)ethynyl)-3′H-spiro[azetidine-3,2′-benzofuran]-1-yl)acetic acid]	> 1 µM	< 1 µM	≤ 0.01 µM
O=C(O)C1CC(N2CC3(Cc4ccc(OCc5cccc6c5CCC6)cc4C3)C2)C1 (stereo not drawn) [Example 83, 3-(5′-((2,3-dihydro-1H-inden-4-yl)methoxy)-1′,3′-dihydrospiro[azetidine-3,2′-inden]-1-yl)cyclobutanecarboxylic acid]	> 1 µM	< 1 µM	0.01 to 0.1 µM

Reference: patent publication US20200055817A1 (AbbVie Deutschland GmbH & Co. KG, priority 2016, published 2020)
